From patent US9963442B2, “Pyridones as herbicides” (E I DU PONT DE NEMOURS AND COMPANY, priority 2014, dated 2018)

Experiments:
[1] = system: winter wheat (Triticum aestivum); experiment: Test C postemergence; format: in vivo; details: scale 0 to 100, 0 is no effect, 100 is complete control
Procedure, shortened: (§1)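 Pre- and postemergence greenhouse applications of test chemicals in non-phytotoxic solvent with surfactant; preemergence on seeds in loam/sand, postemergence on plants 2–18 cm (1- to 4-leaf stage) in peat-based medium. Visual rating versus untreated controls after 13–15 days, scale 0 (no effect) to 100 (complete control).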

[2] = system: velvetleaf (Abutilon theophrasti); experiment: Test C postemergence; format: in vivo; details: scale 0 to 100, 0 is no effect, 100 is complete control
Procedure, shortened: as §1

[3] = system: kochia (Kochia scoparia); experiment: Test C postemergence; format: in vivo; details: scale 0 to 100, 0 is no effect, 100 is complete control
Procedure, shortened: as §1

[4] = system: corn (Zea mays); experiment: Test C postemergence; format: in vivo; details: scale 0 to 100, 0 is no effect, 100 is complete control
Procedure, shortened: as §1

[5] = system: wild oat (Avena fatua); experiment: Test C postemergence; format: in vivo; details: scale 0 to 100, 0 is no effect, 100 is complete control
Procedure, shortened: as §1

[6] = system: morningglory (Ipomoea coccinea); experiment: Test C postemergence; format: in vivo; details: scale 0 to 100, 0 is no effect, 100 is complete control
Procedure, shortened: as §1

[7] = system: lambsquarters (Chenopodium album); experiment: Test C postemergence; format: in vivo; details: scale 0 to 100, 0 is no effect, 100 is complete control
Procedure, shortened: as §1

[8] = system: giant foxtail (Setaria faberii); experiment: Test C postemergence; format: in vivo; details: scale 0 to 100, 0 is no effect, 100 is complete control
Procedure, shortened: as §1

[9] = system: galium (catchweed bedstraw, Galium aparine); experiment: Test C postemergence; format: in vivo; details: scale 0 to 100, 0 is no effect, 100 is complete control
Procedure, shortened: as §1

[10] = system: oilseed rape (Brassica napus); experiment: Test C postemergence; format: in vivo; details: scale 0 to 100, 0 is no effect, 100 is complete control
Procedure, shortened: as §1

[11] = system: chickweed (common chickweed, Stellaria media); experiment: Test C postemergence; format: in vivo; details: scale 0 to 100, 0 is no effect, 100 is complete control
Procedure, shortened: as §1

[12] = system: blackgrass (Alopecurus myosuroides); experiment: Test C postemergence; format: in vivo; details: scale 0 to 100, 0 is no effect, 100 is complete control
Procedure, shortened: as §1

[13] = system: large (Lg) crabgrass (Digitaria sanguinalis); experiment: Test C postemergence; format: in vivo; details: scale 0 to 100, 0 is no effect, 100 is complete control
Procedure, shortened: as §1

[14] = system: pigweed (Amaranthus retroflexus); experiment: Test C postemergence; format: in vivo; details: scale 0 to 100, 0 is no effect, 100 is complete control
Procedure, shortened: as §1

[15] = system: Italian ryegrass (Lolium multiflorum); experiment: Test C postemergence; format: in vivo; details: scale 0 to 100, 0 is no effect, 100 is complete control
Procedure, shortened: as §1

[16] = system: yellow nutsedge (Cyperus esculentus); experiment: Test C postemergence; format: in vivo; details: scale 0 to 100, 0 is no effect, 100 is complete control
Procedure, shortened: as §1

[17] = system: soybean (Glycine max); experiment: Test C postemergence; format: in vivo; details: scale 0 to 100, 0 is no effect, 100 is complete control
Procedure, shortened: as §1

[18] = system: waterhemp (common waterhemp, Amaranthus rudis); experiment: Test C postemergence; format: in vivo; details: scale 0 to 100, 0 is no effect, 100 is complete control
Procedure, shortened: as §1

[19] = system: johnsongrass (Sorghum halepense); experiment: Test C postemergence; format: in vivo; details: scale 0 to 100, 0 is no effect, 100 is complete control
Procedure, shortened: as §1

O=c1cccc(Oc2ncc(Cl)cn2)n1-c1ccc(Cl)cc1 [Compound 1, 1-(4-chlorophenyl)-6-[(5-chloro-2-pyrimidinyl)oxy]-2(1H)-pyridinone]
Plant response rating, Wheat ([1]; 16 g ai/ha): 0
Plant response rating, Wheat ([1]; 31 g ai/ha): 5
Plant response rating, Wheat ([1]; 62 g ai/ha): 5
Plant response rating, Wheat ([1]; 125 g ai/ha): 10
Plant response rating, Velvetleaf ([2]; 16 g ai/ha): 10
Plant response rating, Velvetleaf ([2]; 31 g ai/ha): 10
Plant response rating, Velvetleaf ([2]; 62 g ai/ha): 20
Plant response rating, Velvetleaf ([2]; 125 g ai/ha): 25
Plant response rating, Kochia ([3]; 16 g ai/ha): 90
Plant response rating, Kochia ([3]; 31 g ai/ha): 90
Plant response rating, Kochia ([3]; 62 g ai/ha): 95
Plant response rating, Kochia ([3]; 125 g ai/ha): 95
Plant response rating, Corn ([4]; 16 g ai/ha): 5
Plant response rating, Corn ([4]; 31 g ai/ha): 5
Plant response rating, Corn ([4]; 62 g ai/ha): 10
Plant response rating, Corn ([4]; 125 g ai/ha): 10
Plant response rating, Oat, Wild ([5]; 16 g ai/ha): 5
Plant response rating, Oat, Wild ([5]; 31 g ai/ha): 5
Plant response rating, Oat, Wild ([5]; 62 g ai/ha): 5
Plant response rating, Oat, Wild ([5]; 125 g ai/ha): 10
Plant response rating, Morningglory ([6]; 16 g ai/ha): 10
Plant response rating, Morningglory ([6]; 31 g ai/ha): 40
Plant response rating, Morningglory ([6]; 62 g ai/ha): 40
Plant response rating, Morningglory ([6]; 125 g ai/ha): 60
Plant response rating, Lambsquarters ([7]; 16 g ai/ha): 15
Plant response rating, Lambsquarters ([7]; 31 g ai/ha): 15
Plant response rating, Lambsquarters ([7]; 62 g ai/ha): 45
Plant response rating, Lambsquarters ([7]; 125 g ai/ha): 55
Plant response rating, Foxtail, Giant ([8]; 16 g ai/ha): 5
Plant response rating, Foxtail, Giant ([8]; 31 g ai/ha): 10
Plant response rating, Foxtail, Giant ([8]; 62 g ai/ha): 10
Plant response rating, Foxtail, Giant ([8]; 125 g ai/ha): 10
Plant response rating, Galium ([9]; 16 g ai/ha): 40
Plant response rating, Galium ([9]; 31 g ai/ha): 45
Plant response rating, Galium ([9]; 62 g ai/ha): 80
Plant response rating, Galium ([9]; 125 g ai/ha): 85
Plant response rating, Oilseed Rape ([10]; 16 g ai/ha): 10
Plant response rating, Oilseed Rape ([10]; 31 g ai/ha): 30
Plant response rating, Oilseed Rape ([10]; 62 g ai/ha): 70
Plant response rating, Oilseed Rape ([10]; 125 g ai/ha): 80
Plant response rating, Chickweed ([11]; 16 g ai/ha): 10
Plant response rating, Chickweed ([11]; 31 g ai/ha): 10
Plant response rating, Chickweed ([11]; 62 g ai/ha): 50
Plant response rating, Chickweed ([11]; 125 g ai/ha): 65
Plant response rating, Blackgrass ([12]; 16 g ai/ha): 5
Plant response rating, Blackgrass ([12]; 31 g ai/ha): 5
Plant response rating, Blackgrass ([12]; 62 g ai/ha): 5
Plant response rating, Blackgrass ([12]; 125 g ai/ha): 5
Plant response rating, Crabgrass, Large ([13]; 16 g ai/ha): 10
Plant response rating, Crabgrass, Large ([13]; 31 g ai/ha): 15
Plant response rating, Crabgrass, Large ([13]; 62 g ai/ha): 15
Plant response rating, Crabgrass, Large ([13]; 125 g ai/ha): 20
Plant response rating, Pigweed ([14]; 16 g ai/ha): 35
Plant response rating, Pigweed ([14]; 31 g ai/ha): 95
Plant response rating, Pigweed ([14]; 62 g ai/ha): 60
Plant response rating, Pigweed ([14]; 125 g ai/ha): 80
Plant response rating, Ryegrass, Italian ([15]; 16 g ai/ha): 5
Plant response rating, Ryegrass, Italian ([15]; 31 g ai/ha): 5
Plant response rating, Ryegrass, Italian ([15]; 62 g ai/ha): 5
Plant response rating, Ryegrass, Italian ([15]; 125 g ai/ha): 10
Plant response rating, Nutsedge, Yellow ([16]; 16 g ai/ha): 5
Plant response rating, Nutsedge, Yellow ([16]; 31 g ai/ha): 5
Plant response rating, Nutsedge, Yellow ([16]; 62 g ai/ha): 5
Plant response rating, Nutsedge, Yellow ([16]; 125 g ai/ha): 10
Plant response rating, Soybean ([17]; 16 g ai/ha): 15
Plant response rating, Soybean ([17]; 31 g ai/ha): 35
Plant response rating, Soybean ([17]; 62 g ai/ha): 30
Plant response rating, Soybean ([17]; 125 g ai/ha): 70
Plant response rating, Waterhemp ([18]; 16 g ai/ha): 25
Plant response rating, Waterhemp ([18]; 31 g ai/ha): 80
Plant response rating, Waterhemp ([18]; 62 g ai/ha): 70
Plant response rating, Waterhemp ([18]; 125 g ai/ha): 90
Plant response rating, Johnsongrass ([19]; 16 g ai/ha): 0
Plant response rating, Johnsongrass ([19]; 31 g ai/ha): 5
Plant response rating, Johnsongrass ([19]; 62 g ai/ha): 5
Plant response rating, Johnsongrass ([19]; 125 g ai/ha): 5
melting point: 72 to 74 °C
